Assay results published in patent US20070276013A1, “Active Substance Combinations with Insecticidal Properties” (priority 2004, published 2007).
“And” between values parts separate entries of the source, which are not always exact repeats. Equal values may be shown once.

Assays:
Format in all cases: in vivo
[1] = test system: Phaedon cochleariae larvae; assay: Phaedon cochleariae larvae test, treated cabbage leaves; conditions: 144 h, after 6 d
Excerpt: (§1) The action to be expected for a given combination of two active substance can be calculated as follows according to S. R. Colby, Weeds 15 (1967), 20-22:
(§2) If • X stands for the mortality rate expressed in % of the untreated control upon the use of active substance A at an application amount of m g/ha or in a concentration of m ppm, • Y stands for the mortality rate expressed in % of the untreated control upon the use of active substance B at an application amount of n g/ha or in a concentration of n ppm, and • E stands for the mortality rate expressed in % of the untreated control upon the use of active substances A and B at an application amount of m and n g/ha or in a concentration of m and n ppm, then [formula]
(§3) If the actual insecticidal mortality rate is greater than calculated, then the combination is […] in its mortality; that is to say, a synergistic effect is present. In this case the mortality rate that is actually observed must be greater than the value for the expected mortality rate (E) calculated from the formula presented above.
(§4) To produce a suitable active substance preparation, one mixes 1 part by weight of active substance with the listed amount of solvent and emulsifier and dilutes the concentrate with water containing an emulsifier at the desired concentration.
Cabbage leaves (Brassica oleracea) are treated by immersion in the active substance preparation of the desired concentration and filled with mustard beetle larvae (Phaedon cochleariae) for as long as the leaves are still damp.
After […] the mortality in % is determined. In the process, 100% means that all beetle larvae were killed; 0% means that no beetle larvae were killed. One determines the determined mortality rate according to the Colby formula (see page 1).

Aphis gossypii = Aphis gossypii test, immersion of infested cotton leaves; conditions: 24 h, after 1 d
Excerpt: as §1, §2
as §3, with “above. […]” for “above.”
After […] the mortality in % is determined. […] One calculates the determined mortality rate according to the Colby formula (see page 1).

Myzus persicae = Myzus persicae test, immersion of infested cabbage leaves
Excerpt: as §1, §2, §3, §4
Cabbage leaves (Brassica oleracea) that are severely afflicted by the green peach aphid (Myzus persicae) are treated by immersion in the active substance preparation of the desired concentration.
After […] the mortality in % is determined. In the process, 100% means that all green peach aphids were killed; 0% means that no green peach aphids were killed. One calculates the determined mortality rate according to the Colby formula (see page 1).

[2] = test system: Plutella xylostella (sensitive strain); assay: Plutella xylostella test (sensitive strain), treated cabbage leaves; conditions: 144 h, after 6 d, normal sensitivity
Excerpt: as §1, §2, §3, §4
(§5) Cabbage leaves (Brassica oleracea) are treated by immersion in the active substance preparation of the desired concentration and filled with cabbage moth larvae (Plutella xylostella) for as long as the leaves are still damp.
(§6) After […] the mortality in % is determined. In the process, 100% means that all larvae were killed; 0% means that no larvae were killed. One determines the determined mortality rate according to the Colby formula (see page 1).

[3] = test system: Plutella xylostella (resistant strain); assay: Plutella xylostella test (resistant strain), treated cabbage leaves; conditions: 144 h, after 6 d
Excerpt: as §1, §2, §3, §4, §5, §6

Spodoptera frugiperda = Spodoptera frugiperda test, treated cabbage leaves; conditions: 72 h, after 3 d
Excerpt: as §1, §2
as §3, with “above. […]” for “above.”
(§7) After […] the mortality in % is determined. […] One determines the determined mortality rate according to the Colby formula (see page 1).

Heliothis armigera = Heliothis armigera test, treated cotton leaves with larvae; conditions: Helicoverpa armigera, 144 h, after 6 d
Excerpt: as §1, §2, §3, §4
Cotton leaves (Gossypium hirsutum) are treated by immersion in the active substance preparation of the desired concentration and filled with cotton bollworm larvae (Heliothis armigera) for as long as the leaves are still damp.
as §6

Spodoptera exigua = Spodoptera exigua test, treated cabbage leaves; conditions: 144 h, after 6 d
Excerpt: as §1, §2
as §3, with “above. […]” for “above.”
as §7

`CC1(C)C(C=C(Cl)Cl)C1C(=O)OC(C#N)c1cccc(Oc2ccccc2)c1` (stereo not drawn) [Alpha-cypermethrin, Alpha-Cypermethrin] showed a mortality at 0.16 ppm [1] of 5%.
For `CC1(C)C(C=C(Cl)Cl)C1C(=O)OC(C#N)c1ccc(F)c(Oc2ccccc2)c1` (stereo not drawn) [Beta-cyfluthrin, Betacyfluthrin], the mortality at 0.12 ppm ([1]; 0.12 ppm) was 15%, the mortality at 0.12 ppm (Aphis gossypii; 0.12 ppm) was 5% and the mortality at 0.12 ppm (Myzus persicae; Myzus persicae, 144 h, read-out: Mortality in % after 6 d, 0.12 ppm, after 6 d) was 0%. It also gave a mortality at 0.024 ppm [2] of 10%, a mortality at 0.6 ppm [3] of 35% and a mortality at 0.12 ppm (Spodoptera frugiperda; 0.12 ppm) of 5%. For the same compound, the mortality at 0.12 ppm (Heliothis armigera) was 0% and the mortality at 0.6 ppm (Spodoptera exigua; 0.6 ppm) was 25%.
`Cc1c(COC(=O)C2C(/C=C(\Cl)C(F)(F)F)C2(C)C)cccc1-c1ccccc1` (stereo not drawn) [Bifenthrin] gave a mortality at 0.8 ppm ([1]; 0.8 ppm) of 35% and a mortality at 0.16 ppm (Myzus persicae; Myzus persicae, 144 h, read-out: Mortality in % after 6 d, 0.16 ppm, after 6 d) of 0%.
For `CC1(C)[C@H](C(=O)O[C@H](C#N)c2cccc(Oc3ccccc3)c2)[C@@H]1C=C(Br)Br` [Deltamethrin], the mortality at 0.16 ppm [1] was 30%.
`CC1(C)C(/C=C(\Cl)C(F)(F)F)C1C(=O)OC(C#N)c1cccc(Oc2ccccc2)c1` (stereo not drawn) [Lambda-cyhalothrin] gave a mortality at 0.024 ppm [2] of 40%, a mortality at 0.6 ppm [3] of 40% and a mortality at 0.12 ppm (Heliothis armigera) of 55%.
Work on `N#C/N=C1\SCCN1Cc1ccc(Cl)nc1` [Thiacloprid, thiacloprid] yielded a mortality at 3 ppm ([1]; 3 ppm) of 15%, a mortality at 20 ppm ([1]; 20 ppm) of 40% and a mortality at 0.6 ppm (Aphis gossypii; 0.6 ppm) of 35%. The “Mortality in % after 6 d” value (Myzus persicae; 0.8 ppm, after 6 d) was 0% and 10%, the mortality at 0.6 ppm (Myzus persicae; Myzus persicae, 144 h, read-out: Mortality in % after 6 d, 0.6 ppm, after 6 d) was 35% and the mortality at 0.6 ppm ([2]; 0.6 ppm) was 0%. For the same compound, the mortality at 3 ppm ([3]; 3 ppm) was 0%, the mortality at 15 ppm ([3]; 15 ppm) was 10% and the mortality at 0.6 ppm (Spodoptera frugiperda; 0.6 ppm) was 0%. The mortality at 0.12 ppm (Heliothis armigera) was 0%, the mortality at 0.6 ppm (Heliothis armigera; 0.6 ppm) was 0% and the mortality at 15 ppm (Spodoptera exigua; 15 ppm) was 0%.
